Results from ChEMBL document CHEMBL4000146, “Synthesis, antiplasmodial activity and mechanistic studies of pyrimidine-5-carbonitrile and quinoline hybrids” (Eur J Med Chem, 2015).

Tests used:
Vaccinia virus = experiment: microbe, parasite or virus in culture; details: Orthopoxvirus vaccinia, HEL
Punta Toro virus = type: functional; details: Vero
Human alphaherpesvirus 2 = type: functional, cell-based; details: Human alphaherpesvirus 2, G, HEL
Human orthopneumovirus = type: functional, cell-based; details: human respiratory syncytial virus, HeLa
Human betaherpesvirus 5 [1] = type: functional, cell-based; details: Human betaherpesvirus 5, Davis, HEL
[2] = Cytotoxicity against african green monkey Vero cells assessed as alteration of normal cell morphology by microscopic analysis; type: cell-based; details: chlorocebus sabaeus
Coxsackievirus [3] = type: functional, cell-based; details: B4, HeLa
Human alphaherpesvirus 1 [4] = type: functional, cell-based; details: Human alphaherpesvirus 1, KOS, HEL
[5] = Selectivity index, ratio of IC50 for human HeLa cells to IC50 for chloroquine-resistant asexual intraerythrocytic stage of Plasmodium falciparum Dd2; type: toxicity, cell-based; details: read-out: Ratio IC50
[6] = Cytotoxicity against MDCK cells assessed as inhibition of cell viability by colorimetric formazan-based MTS assay; design: species or system Canis lupus familiaris; details: dog
CCRF-CEM = experiment: Cytotoxicity against human CEM cells assessed as inhibition of cell proliferation by Coulter counter analysis; type: cell-based
L1210 = experiment: Cytotoxicity against mouse L1210 cells assessed as inhibition of cell proliferation by Coulter counter analysis; type: cell-based
[7] = tested on: Vesicular stomatitis virus; experiment: microbe, parasite or virus in culture; details: HeLa
Coxsackievirus [8] = type: functional; details: B4, Vero
Influenza A virus [9] = experiment: microbe, parasite or virus in culture; details: H1N1, MDCK
[10] = tested on: Mammalian orthoreovirus 1; type: functional; details: Mammalian orthoreovirus 1, Vero
[11] = Selectivity index, ratio of IC50 for human HeLa cells to IC50 for chloroquine-sensitive asexual intraerythrocytic stage of Plasmodium falciparum NF54; type: toxicity, cell-based; details: read-out: Ratio IC50
Human betaherpesvirus 5 [12] = type: functional, cell-based; details: Human betaherpesvirus 5, AD169, HEL
Influenza B virus = experiment: microbe, parasite or virus in culture; details: MDCK
[13] = Cytotoxicity against human HeLa cells assessed as alteration of normal cell morphology by microscopic analysis; type: cell-based
Human alphaherpesvirus 1 [14] = type: functional, cell-based; details: Human alphaherpesvirus 1, KOS, HEL; remark: listed apart in the source
Influenza A virus [15] = experiment: microbe, parasite or virus in culture; details: H3N2, MDCK
Human respirovirus 3 = type: functional; details: Human respirovirus 3, Vero
Plasmodium falciparum [16] = experiment: Resistance index, ratio of IC50 for chloroquine-resistant asexual intraerythrocytic stage of Plasmodium falciparum Dd2 to IC50 for chloroquine-sensitive asexual intraerythrocytic stage of Plasmodium falciparum NF54; type: functional
Sindbis virus = type: functional; details: Vero
Human alphaherpesvirus 3 [17] = type: functional, cell-based; details: Human alphaherpesvirus 3, strain Oka vaccine, HEL
Plasmodium falciparum [18] = experiment: microbe, parasite or virus in culture; details: NF54
Plasmodium falciparum [19] = experiment: microbe, parasite or virus in culture; details: Dd2
HeLa = experiment: Cytotoxicity against human HeLa cells assessed as inhibition of cell proliferation by Coulter counter analysis; type: cell-based
unidentified adenovirus = type: functional, cell-based; details: HEL
[20] = Cytotoxicity against human HEL cells assessed as inhibition of cell viability by colorimetric formazan-based MTS assay
[21] = Cytotoxicity against human HEL cells assessed as alteration of normal cell morphology by microscopic analysis; type: cell-based
[22] = tested on: Vesicular stomatitis virus; experiment: microbe, parasite or virus in culture; details: HEL
[23] = Cytotoxicity against MDCK cells assessed as alteration of normal cell morphology by microscopic analysis; type: cell-based, Canis lupus familiaris; details: dog
Human alphaherpesvirus 3 [24] = type: functional, cell-based; details: Human alphaherpesvirus 3, 07-1, HEL

Row | SMILES | EC50 (Vaccinia virus) [nM] | EC50 (Punta Toro virus) [nM] | EC50 (Human alphaherpesvirus 2) [nM] | EC50 (Human orthopneumovirus) [nM] | EC50 (Human betaherpesvirus 5 [1]) [nM] | MCC [2] [µM] | EC50 (Coxsackievirus [3]) [nM] | EC50 (Human alphaherpesvirus 1 [4]) [nM] | selectivity ratio [5] | CC50 [6] [nM] | IC50 (CCRF-CEM) [nM] | IC50 (L1210) [nM] | EC50 [7] [nM] | EC50 (Coxsackievirus [8]) [nM] | EC50 (Influenza A virus [9]) [nM] | EC50 [10] [nM] | selectivity ratio [11] | EC50 (Human betaherpesvirus 5 [12]) [nM] | EC50 (Influenza B virus) [nM] | MCC [13] [µM] | further results
1 | COc1ccc(-c2nc(SC)nc(NCCCCNc3ccnc4cc(Cl)ccc34)c2C#N)cc1 | > 800 | > 4000 | > 800 | > 4000 | > 4000 | 20 | > 4000 | > 800 | 2.2 | 10000 | 2700 | 3200 | > 4000 | > 4000 | > 4000 | > 4000 | 30.9 | > 4000 | > 4000 | 20 | EC50 (Human alphaherpesvirus 1 [14]): > 800 nM; EC50 (Influenza A virus [15]): > 4000 nM; EC50 (Human respirovirus 3): > 4000 nM; Ratio IC50 (Plasmodium falciparum [16]): 13.92; EC50 (Sindbis virus): > 4000 nM; EC50 (Human alphaherpesvirus 3 [17]): > 4000 nM; IC50 (Plasmodium falciparum [18]): 110 nM; IC50 (Plasmodium falciparum [19]): 1530 nM; IC50 (HeLa): 3400 nM; EC50 (unidentified adenovirus): > 4000 nM; CC50 [20]: 7900 nM; MCC [21]: 4 to 20 µM; EC50 [22]: > 800 nM; MCC [23]: 20 µM; EC50 (Human alphaherpesvirus 3 [24]): > 4000 nM
2 | CSc1nc(OCCCNc2ccnc3cc(Cl)ccc23)c(C#N)c(-c2ccccc2)n1 | > 800 | > 800 | > 800 | > 800 | > 800 | 4 | > 800 | > 800 | 16.3 | 2100 | 3300 | 3900 | > 800 | > 800 | > 800 | > 800 | 38.3 | > 800 | > 800 | 4 | EC50 (Human alphaherpesvirus 1 [14]): > 800 nM; EC50 (Influenza A virus [15]): > 800 nM; EC50 (Human respirovirus 3): > 800 nM; Ratio IC50 (Plasmodium falciparum [16]): 2.34; EC50 (Sindbis virus): > 800 nM; EC50 (Human alphaherpesvirus 3 [17]): > 800 nM; IC50 (Plasmodium falciparum [18]): 88.8 nM; IC50 (Plasmodium falciparum [19]): 208 nM; IC50 (HeLa): 3400 nM; EC50 (unidentified adenovirus): > 800 nM; CC50 [20]: 1700 nM; MCC [21]: 4 µM; EC50 [22]: > 800 nM; MCC [23]: 4 µM; EC50 (Human alphaherpesvirus 3 [24]): > 800 nM
